Key:
Histamine H3 receptor = Histamine H3 receptor (Cavia porcellus, UniProt Q9JI35)
Hrh3 protein = Hrh3 protein (Rattus norvegicus, UniProt Q5PPG3)
Hrh3 protein, sequence (Q5PPG3 whole entry): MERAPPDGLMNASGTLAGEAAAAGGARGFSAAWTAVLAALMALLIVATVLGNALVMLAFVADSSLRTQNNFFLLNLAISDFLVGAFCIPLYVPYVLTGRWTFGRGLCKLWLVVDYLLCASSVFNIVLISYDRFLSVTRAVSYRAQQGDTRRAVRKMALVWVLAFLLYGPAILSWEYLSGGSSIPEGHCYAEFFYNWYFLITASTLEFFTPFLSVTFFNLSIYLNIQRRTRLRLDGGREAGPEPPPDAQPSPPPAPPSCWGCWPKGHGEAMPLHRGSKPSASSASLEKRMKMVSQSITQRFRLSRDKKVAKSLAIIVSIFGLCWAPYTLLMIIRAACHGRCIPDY

Histamine H3 receptor, sequence (Q9JI35 whole entry): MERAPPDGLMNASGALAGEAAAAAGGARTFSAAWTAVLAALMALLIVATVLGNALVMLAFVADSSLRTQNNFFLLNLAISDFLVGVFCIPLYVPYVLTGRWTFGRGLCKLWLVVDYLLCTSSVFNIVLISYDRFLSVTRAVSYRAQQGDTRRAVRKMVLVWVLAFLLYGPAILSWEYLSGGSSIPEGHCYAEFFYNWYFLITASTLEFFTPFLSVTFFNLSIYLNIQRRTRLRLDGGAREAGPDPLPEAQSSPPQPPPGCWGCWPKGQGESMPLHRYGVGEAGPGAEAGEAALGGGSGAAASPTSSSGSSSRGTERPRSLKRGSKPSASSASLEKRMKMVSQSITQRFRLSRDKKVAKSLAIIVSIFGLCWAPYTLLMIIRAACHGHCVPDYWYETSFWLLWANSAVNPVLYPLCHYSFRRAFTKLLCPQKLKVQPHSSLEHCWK

NCCc1c[nH]cn1 [[3H]histamine]
Ki (Histamine H3 receptor): 100 nM | Ki (Hrh3 protein): 100 nM

S=C(NC1CCCCC1)N1CCC(c2cnc[nH]2)CC1
Ki (Histamine H3 receptor): 2 nM | Ki (Hrh3 protein): 2.1 nM

c1ncc(CCN2CCCC2)[nH]1 [4-[2-(1-Pyrrolidinyl)ethyl]-imidazole]
Ki (Histamine H3 receptor): 6 nM

C[C@@H](N)Cc1c[nH]cn1
Ki (Histamine H3 receptor): 813 nM

C[C@H](N)Cc1c[nH]cn1 [CAS_75614-93-6]
Ki (Histamine H3 receptor): 52 nM | Ki (Hrh3 protein): 11 nM
